Data taken from US10689415B2, “Conjugates of RGD peptides and (bacterio)chlorophyll photosensitizers” (YEDA RESEARCH AND DEVELOPMENT COMPANY LTD., priority 2006, dated 2020).

Assays:
[1] = system: large MDA-MB-231-RFP tumors; test: Biodistribution and pharmacokinetics (fluorescence of tissue extracts) in MDA-MB-231-RFP tumor-bearing mice; format: in vivo, CD-1 nude female mice
Experimental: Mammary fat pads (left, bottom nipple) of female mice were inoculated with harvested MDA-MB-231-RFP human breast cancer cells (4×10^6 in […] saline). Tumors were classified as ‘small’ (˜100 mm^3) at one to two weeks from time of cell injection, or ‘large’ after three to four weeks (necrotic tumors, 250 to 500 mm^3). To avoid tumor burden, mice were sacrificed (cervical dislocation) when tumor size reached 10% of body weight or at 90 days post-implantation. External caliper measurements, length (L), width (W) and depth (D) were used to calculate in vivo tumor volume according to the formula: V=L/2·W/2·D/2·π·4/3.
Anesthetized mice were i.v. injected (tail vein) with the different photosensitizer (pigment) conjugates (control group: untreated). The mice were sacrificed at indicated time points and samples of the indicated organs and tissues (blood, tumor, intestine, liver, spleen, kidneys, testies, heart, lung, brain, skin, muscle and fat) were placed in pre-weighted vials and immediately frozen and stored at −20° in the dark until analyzed. Three methods were used for sample preparation: (1) Each sample was thawed and homogenized in DDW (1:10 w/v). Aliquots of the homogenate (500 μl) were lyophilized in Eppendorf test tubes. Then, 60 μl of HNO3 (70%, TraceSelect, Fluka) were added to each dry sample, incubated for 1 h at 90° C. and diluted with DDW to 3 ml. (2) Each sample was diluted (1:2 w/v) in HNO3 (70%, TraceSelect, Fluka). The samples were sonicated for 30 min in boiled water, and left for at least 48 h at room temperature. (3) Applied for assessment of non-metalated conjugates. Each sample was thawed and homogenized in methanol (100 mg tissue/ml) and extracted the next morning by centrifugation (13,000×g, five minutes) at room temperature. In methods (1) and (2), 140 μl from each sample was added to 3.36 ml DDW to give total volume of 3.5 ml and incubated for 1 h at 90° C. Pd concentrations were determined by ICP-MS. According to method (3), the supernatants were diluted in methanol by a factor of two and the drug concentration was determined by fluorescence measurements (Varian-Cary Eclipse spectrofluorimeter, Palo Alto, Calif., USA) at 750 nm (peak values). Drug concentrations were interpolated from a fluorescence calibration curve, based on predetermined drug concentrations using absorption spectroscopy.

[2] = system: orthotopic human breast MDA-MB-231-RFP primary tumor; test: Whole-body NIR fluorescence imaging of accumulation in orthotopic MDA-MB-231-RFP tumor; format: in vivo, CD-1 nude female mice; conditions: for accumulation in the tumor (NIR fluorescence): 15 mg/kg i.v.
Experimental: RFP fluorescence, in units of photons/sec, was detected using 525/50 nm and 612/75 nm filter sets for excitation and emission, respectively, with one second integration time. NIR fluorescence of the different photosensitizers, in units of photons/sec, was detected using 680/30 nm and 847/75 nm filter sets for excitation and emission, respectively, at an integration time of five seconds. Background fluorescence for all quantitative analyses was calculated by recording the average fluorescence (photons/sec)/cm^2 from three animals in three different areas around and within the tumor of untreated animals provided with a similar diet for three days before measurements. Drug accumulation was determined following i.v. administration of molar equivalents of the photosensitizer to the tail vein of mice fed with a chlorophyll-free, purified diet for three days before administration (in order to reduce skin and food autofluorescence). Before imaging, mice were anesthetized by intraperitoneum injection of a 30 μl mixture of 85:15 ketamine:xylazine.
In order to study the accumulation of the photosensitizer in primary mammary tumors, the MDA-MB-231-RFP cells (4×10^6) were implanted orthotopicaly in the mammary pad of the mice. Tumors developed to the wanted size, bigger than 1 cm^3, within 3-4 weeks.
Tumor imaging main filter set comprised: excitation filter 500-550 nm, emission filter 575-650 nm; Background filter set for subtraction the tissue auto fluorescence: excitation filter 460-490 nm, emission filter 575-650 nm. Photosensitizer imaging main filter set: excitation filter 665-695 nm, emission filter 810-875 nm.
Images were taken at these time points post drug injection: 15 min, 1, 2, 3, 4.5, 6, 7.5, 9, 24 hr, 2, 3, 4, 5, 6, 7 days.

[3] = system: MLS ovarian carcinoma; test: Fluorescence imaging, MLS ovarian carcinoma; format: in vivo, mice; conditions: 8 mg/kg i.v.
Experimental: Conjugate 26 (8 mg/kg) was i.v. injected into animals bearing MLS ovarian carcinoma. Images on IVIS were taken after 8 and 14 hours.

[4] = system: human mammary cancer MDA-MB-231-RFP xenografts; test: In vivo PDT of MDA-MB-231-RFP xenografts; design: species or system CD-1 nude male mice; conditions: 7.5 mg/kg i.v.
Experimental: For the PDT experiments, MDA-MB-231 RFP cells (4×10^6) were implanted subcutaneously on the backs of the mice and tumors developed to the treatment size (6-8 mm) within 2-3 weeks.
The tumors were illuminated for 10 min. The drug light interval used was 8 hr post drug injection. Transdermal illumination through the mouse skin with 755 nm diode laser at 100 mW/cm^2 (CeramOptec, Germany) was used. After the treatment, the mice were returned to the cage. […] In the light control group, the mice were illuminated for 10 min with 100 mW/cm^2. During the first 2 days post PDT, as needed, the mice received analgesia (2.5 mg/kg Flunexin daily) and 3 days Oxycode in the drinking water. The end point of animal survival is when the size of the tumor reaches 10% of animal weight. Mice are sacrificed at this time (up to 90 days) by cervical dislocation.
FIGS. 35A-35B show two representative examples to local response of human MDA-MB-231-RFP to PDT. […] 35A—Photographs taken from day 0 (before treatment) and after treatment at 1, 4, 7, 12 and 90 days. […] 35B—In vivo whole-body red fluorescence imaging of CD-1 nude male mice bearing MDA-MB-231-RFP orthotopic tumor.

[5] = Solubilization for in vitro experiments (water solubility); format: physicochemical
Experimental: Compound 24 was dissolved in 100% DMSO before use and diluted in saline to a final DMSO concentration of 5% v/v.

[6] = system: CT26luc colon cancer; test: In vivo PDT (VTP) of CT26luc colon cancer; design: species or system CD-1 nude male mice; conditions: i.v. injected and illuminated after 8 hours
Experimental: CD-1 nude male mice bearing the different tumor xenografts were anesthetized and 24 (5-24 mg/kg body weight) or 8 (9 mg/kg body weight) were i.v. injected via the tail vein. The tumors were trans-cutaneously illuminated after 3.5, 6, 8, 12 and 24 hours for 5-30 min at light doses of 30-360 J/cm^2. Intensity of illumination: 100-200 mW/cm^2. After treatment, the mice were returned to the cage. The mice were considered cured if tumor free for 90 days after treatment. Mice were euthanized when the tumor diameter reached 15 mm. […] (5) Mixture of 8 and cycloRGDfK: the mice were i.v. injected with mixture of 8 with cycloRGDfK and illuminated after indicated time point. (6) cycloRGDfK alone: the mice were i.v. injected with cycloRGDfK and illuminated after indicated time point. Images were taken at indicated time post PDT.
FIGS. 32A-32F show the therapeutic results of applying 15 mg/kg, 10 min illumination (60 J/cm^2), 8 hours post injection of conjugate 24 to mice bearing CT26luc tumors (bolded protocol in Table 5). 32A—conjugate 24 was i.v. injected 15 mg/kg, 10 min illumination (60 J/cm^2) 8 hours post injection; 32B—overlaid images taken after i.p. injection of luciferin to the mouse described in 32A, using the IVIS system. The first image is black and white, which gives the photograph of the animal. The second image is color overlay of the emitted photon data. […]

[7] = system: MDA-MB-231 breast tumor; test: Biodistribution (Cu by ICP-MS) in mice bearing MDA-MB-231 breast tumor; format: in vivo, female CD-1 nude mice
Experimental: The biodistribution of Cu-conjugate 15 was determined in female CD-1 nude mice of 6-8 weeks-old, weighing 20-23 g and bearing 6-9-mm^3 tumors of human adenocarcinoma cells obtained from breast tissue (MDA-MB-231 cells). The conjugate (30 mg/ml in 5% DMSO/PBS) was injected to the tail vein, and the animals were sacrificed in selected time points. Cu concentrations were determined by ICP-MS as described in Material and Methods.

[8] = system: H5V endothelial cells; test: Phototoxicity assay (Neutral Red cell viability after illumination); format: cell-based, mouse
Experimental: The light source for in vitro studies was home-built 100-W halogen lamp equipped with a high-pass filter (>650 nm, Safelight filter 1A Eastman Kodak Co., Rochester, N.Y., USA) and a 4-cm water filter. The lamp was used to illuminate (20 mW/cm^2/10 min (12 J/cm^2)) the culture plates from the bottom at room temperature in a dark room.
To determine the pigment photodynamic efficacy in vitro under standard conditions, cells were cultured in 96-well plates and preincubated for 15 or 90 min at 37° C. or 4° C., according to the indicated experiment protocol, with 0-25 μM conjugated or non-conjugated photosensitizer in different media conditions (culture medium DMEM/F12; 10% FCS in medium or 10 μM BSA in medium) in the absence or presence of excess free peptide (100 fold up to 1 mM). The cells were washed and illuminated (20 mW/cm^2 for 10 min). Plates were placed back in the culture incubator for 24 h. Cell survival was determined using Neutral Red cell viability assay. Cell survival was calculated as the percent of the dye accumulated in the untreated controls. […] Three kinds of controls were used: (i) light control: cells illuminated in the absence of pigments; (ii) dark control: cells treated with pigments but kept in the dark; and (iii) untreated cells that were kept in the dark.
Following photosensitization and a 24-h incubation period (37° C.), cell survival was determined by Neutral Red (Fluka Chemie, Buchs, Switzerland) accumulation. After subtraction of assay blanks, net optical density (570 nm) was computed as the average value of triplicates determinations. Cell survival was calculated as the percent of the dye accumulated in the untreated controls.
H5V cells were incubated for 90 min at 37° C. with 0-25 μM of conjugate 23 or compound 10 in different media conditions, illuminated and their survival was determined using Neutral Red viability assay as described in Materials and Methods.
Targeted phototoxicity is defined as one inhibited by the free ligand. Thus, further experiments attempted to block phototoxicity by administration of the free cycloRGDfK, which competes for the cellular binding of conjugate 23. H5V cells were incubated for 90 min at 37° C. with 0-25 μM of compound 10 or conjugate 23 in different media (10% FCS in medium or 10 μM BSA in medium) in the absence or presence of free excess cycloRGDfK (100-fold up to 1 mM). The cells were illuminated and cell survival was determined using Neutral Red viability assay, as described above.
In order to test the endocytosis theory and since the endocytic process is time- and temperature-dependent, H5V cells were incubated at 37° C. and 4° C. for 15 min with 0-20 μM of conjugate 23 in medium containing 10% FCS, in the presence or absence of excess cycloRGDfK (100-fold up to 1 mM). Cells were illuminated and their survival was determined as described above.
The phototoxicity of conjugate 24 was determined by monitoring the survival of cultured H5V endothelial cells following PDT. H5V cells were incubated for 2 hours at 37° C. with 0-25 μM conjugate 24 in culture medium DMEM/F12 with 10% FCS. The cells were illuminated and their survival was determined as described above.
Cells were incubated for 90 min at 37° C. in the presence of 0-20 μM conjugate 11 or compound 8 in 10 μM BSA in medium, illuminated and their survival was determined as described above.

3^1-oxo-15-methoxycarbonylmethyl-Rhodobacteriochlorin 13^1-(2-sulfoethyl)amide potassium salt [Compound 25, reference compound]
accumulation in the tumor (tissue extracts) ([1]; 9 mg/kg i.v.): no accumulation of 25 in the tumor at any time longer than one hour post administration
specific tumor fluorescence ([2]; 9 mg/kg i.v., large necrotic tumors, one hour post injection): No specific tumor fluorescence

3^1-oxo-15-methoxycarbonylmethyl-Rhodobacteriochlorin 13^1-(2-sulfoethyl)amide-17^3-(GRGDSP)amide potassium salt [Conjugate 26]
accumulation (fluorescence) ([3]; 8 hours): did not present accumulation
accumulation (fluorescence) ([3]; 14 hours): a high level of fluorescence was observed in tumor and liver areas

3^1-oxo-15-methoxycarbonylmethyl-Rhodobacteriochlorin 13^1-(2-sulfoethyl)amide-17^3-(cycloRGDfK)amide potassium salt [Conjugate 13]
peak concentration in the tumors ([1]; 15 mg/kg i.v.): 11 μg drug/gr tumor tissue
peak tumor level as share of the initial drug dose ([1]; 15 mg/kg i.v.): about 3.0%
time of peak concentrations in the tumors ([1]; 15 mg/kg i.v.): eight hours post-injection
time to clear to nearly background levels in normal tissues ([1]; 15 mg/kg i.v.): less than 72 hours
time of peak levels in the normal tissues examined ([1]; 15 mg/kg i.v., blood, liver, kidney): less than five minutes post-injection
whole-body red fluorescence (tumor) signal after PDT ([4]; 90 days after treatment): No signal was detected 90 days after treatment
local tumor response to PDT ([4]; illuminated 8 h later, 755 nm, 100 mW/cm^2, 10 min): after 90 days the wound healed and the animal was cured
accumulation in the tumor (NIR fluorescence) ([2]; 15 min to 24 hr post injection, tumor size ~1 cm^3, potassium salt): no specific accumulation in the tumor during the first 24 hours
accumulation in the tumor (NIR fluorescence) ([2]; day 1 to 6 post injection): reaching peak concentration specifically in the tumor from day 2 post injection

N=C(N)NCCC[C@@H]1NC(=O)[C@H](CCCCN)NC(=O)[C@@H](Cc2ccccc2)NC(=O)[C@H](CC(=O)O)NC(=O)CNC1=O [cycloRGDfK]
water solubility [5]: Water insoluble
PDT effect of controls [6]: no PDT effect

Copper(II) 3^1-oxo-15-methoxycarbonylmethyl-Rhodobacteriochlorin 13^1-(2-sulfoethyl)amide-17^3-(cycloRGDfK)amide potassium salt [Conjugate 15]
tumor intensity in comparison with surrounding normal tissue ([7]; at peak): about 3 fold
time of peak accumulation in tumor after injection ([7]; i.v. tail vein): 8 to 12 h

Palladium 3-oxo-15-methoxycarbonylmethyl-Rhodobacteriochlorin-13^1-(2,3-dihydroxypropyl)amide potassium salt [Compound 10]
water solubility [5]: Water insoluble
LD50 ([8]; 10 μM BSA in medium (90 min, 37° C.)): 3.5 to 5 µM
LD50 ([8]; 10 μM BSA in medium (90 min, 37° C.), with free peptide in excess (cycloRGDfK)): 5 µM
LD50 ([8]; 10% FCS (90 min, 37° C.)): 5 to 7 µM
LD50 ([8]; 10% FCS (90 min, 37° C.), with free peptide in excess (cycloRGDfK)): 5 µM
influence of excess cycloRGDfK on phototoxic effects ([8]; 90 min, 37° C., 100-fold up to 1 mM): not influenced by the presence of excess cycloRGDfK
LD50 ([8]; culture medium (90 min, 37° C.)): 7 µM
phototoxic effects ([8]; different media, 90 min, 37° C., 0-25 μM): light- and drug concentration-dependent
